# According to patent US7307101B2, “Use of 20-HETE synthesizing enzyme inhibitors as therapy for cerebral vascular disease” (MCW Research Foundation, Inc., priority 2000, dated 2007):
# Columns and labels:
# [1] = tested on: EET formation in rat renal microsomes; assay: EET formation in rat renal microsomes ([3H]-AA, Example 3); type: biochemical; settings: highest concentration studied, 1,000 ng/ml or 5 μM
# Description: All procedure was carried out at 4° C. Renal cortex was pooled from twenty male SHR rats (6 weeks of age). They were homogenized extensively in lysis buffer (20 mM HEPES, pH 7.4, 1 mM EDTA, 100 μM p-(amidinophenyl)metanesulfonyl fluoride and 250 mM sucrose), and centrifuged at 16,000×g for 10 min. Supernatant was further centrifuged at 16,000×g for 30 min. Soluble fraction was collected and centrifuged at 200,000×g for 30 min. The resulting pellet was suspended in 50 mM MOPS buffer.
# The reaction was terminated by adding formic acid and acetonitrile to a final concentration of 1% and 50%, respectively.
# rats with SAH [2] = assay: Effect on rCBF after SAH, drug given before SAH; type: in vivo, rat; settings: rats pretreated before SAH, 17-ODYA 1.5 nmol intrathecally
# Description: (§1) Animals. Experiments were performed on male Sprague-Dawley rats (9-12 weeks old), purchased from Harlan Sprague-Dawley, Inc. (Indianapolis, Ind.). The rats were housed in an Animal Care Facility at the Medical College of Wisconsin, which is approved by the American Association for the Accreditation of Laboratory Animal Care. All protocols involving animals received approval by the Animal Care Committee of the Medical College of Wisconsin.
# (§2) Surgical preparation. Rats were anesthetized with ketamine (Ketaject® 20 mg/kg i.m.) and thiobutabarbital sodium (Inactin® 50 mg/kg i.p.). A cannula was placed in the trachea and the rats were artificially ventilated using a small animal ventilator (SAR-830, CWE, Inc., Ardmore, Pa.) with a mixture of 30% O2 in N2. The femoral vein was cannulated for the infusion of drug and the rats received an i.v. infusion of 0.9% NaCl solution at a rate of […] to replace fluid losses. The femoral artery was cannulated for measurement of mean arterial pressure (MAP) and arterial blood gases. Endtidal partial pressure of carbon dioxide (pCO2) was controlled at 38 mmHg by adjusting the minute ventilation according to the reading of an CO2 analyzer (Capstar-100 IITC, Inc., Woodland Hills, Calif.). Blood samples were collected at the beginning and end of the experiment and analyzed using a blood gas analyzer (ABL 300, Radiometer, Copenhagen, Denmark) to validate the endtidal pCO2 readings. Anesthesia was maintained by administering additional amounts of thiobutabarbital (8 mg/kg i.v.) as needed. Rectal body temperature was maintained at 37±1° C.
# Induction of SAH and measurement of cerebral blood flow. SAH was induced by injection of 0.3 ml autologous arterial blood into the Cisterna Magna using a modification of a posterior cranio-cervical approach of a model of SAH. Delgado T J et al., Stroke 16: 595-602 (1985); Solomon R A et al., Stroke 16: 58-64 (1985). The head of the rat was placed in a stereotactic head holder and the atlanto-occipital membrane was exposed by bluntly separating the overlying neck muscles in the midline. The occipital bone and the atlas were visualized. A 30 gauge needle attached to PE-10 was inserted using a stereomicroscope into the Cistema Magna by penetrating the atlanto-occipital membrane. Then, 0.3 ml of freshly drawn unheparinized arterial blood was injected into the Cistema Magna at a rate of 35 μl/min using a syringe pump. This created a massive SAH that was confirmed in all rats at autopsy. Blood was found overlying the cerebello-medullary junction posteriorly and around the basal artery and the vessels of the Circle of Willis.
# (§3) Cerebral blood flow (CBF) was continuously measured using laser Doppler flowmetry through a thinned cranial window. […] A PF 103 laser Doppler flow (LDF) probe was positioned over the cranial window and CBF was monitored using a PF-3 laser Doppler flowmeter (Perimed, Stockholm, Sweden).
# Other animals received 17-ODYA (1.5 nmol) or vehicle in a volume of 50 μl that was injected directly into the Cistema Magna using a micromanipulator and a 30 gauge needle. The CBF recorded over the last 5 minutes of the control period immediately before initiation of SAH served as the control value. […] CBF was recorded for 2 min intervals at 10, 20, 30, 60, 90 and 120 minutes after completion of the injection of the blood. The CBF data are expressed as percentage change from control.
# [3] = Physiological parameters (MAP, endtidal pCO2) during the SAH experiment; type: in vivo, rat; settings: rats, any time
# Description: as §2
# rats with SAH [4] = assay: Effect on rCBF when given after SAH has been established; type: in vivo, rat; settings: 1 mg/kg i.v. 30 min after induction of SAH
# Description: as §1
# Surgical preparation. Rats were anesthetized with ketamine (Ketaject® 20 mg/kg i.m.) and thiobutabarbital sodium (Inactin® 50 mg/kg i.p.). […] Endtidal partial pressure of carbon dioxide (pCO2) was controlled at 38 mmHg by adjusting the minute ventilation according to the reading of an CO2 analyzer (Capstar-100 IITC, Inc., Woodland Hills, Calif.). Blood samples were collected at the beginning and end of the experiment and analyzed using a blood gas analyzer (ABL 300, Radiometer, Copenhagen, Denmark) to validate the endtidal pCO2 readings. […]
# as §3
# 0.3 ml of blood was injected into the Cistema Magna of rats to induce SAH. […] The CBF data are expressed as percentage change from control.
# [5] = HET0016 levels in plasma and brain; type: in vivo; settings: rat; for concentration at 1 h: iv
# Description: Measurement of HET0016 levels in plasma and brain. […] After a one hour equilibration period, the rats were anesthesized with pentobarbital and a blood sample was collected from the jugular vein. The rats were then sacrificed and the brain was removed, weighed and homogenized in 3 volumes of 0.9% NaCl solution using a Physcotron homogenizer (Nition-Ikakikai, Chiba, Japan). […] The samples were mixed with 1 ml of acetonitrile, centrifuged and 20 μl of the clear supernatant was injected into the LC/MS. The samples were separated on a 200×4.6 mm Capcellpak UG 120 ODS column (Shiseido Corp., Tokyo, Japan) and eluted with acetonitrile:water (72/28). Peaks were monitored using a Sciex API 3000 mass spectrometer (Perkin Elmer Sciex, Ontario, Canada) tuned to detect the precursor to product transitions specific for each analyte.
structure (smiles),measurement,setting,value
"CCCCc1ccc(N=CNO)c(C)c1 [HET0016, N-hydroxy-N′-(4-butyl-2-methylphenyl)-formamidine]",EET formation,[1],did not inhibit
same,reduction of the initial fall in rCBF at 10 min,rats with SAH [2]; HET0016 10 mg/kg i.v. 30 min prior,about 40%
same,time after induction of SAH within which rCBF recovered fully to values not different from control,rats with SAH [2]; HET0016 10 mg/kg i.v.,≤ 60 min
same,MAP (blood pressure) versus vehicle,[3],no difference
same,endtidal pCO2 versus vehicle,[3],no significant differences
same,time after treatment at which cerebral blood flow was back to the control value,rats with SAH [4],70 min
same,concentration at 1 h,"[5]; brain, 1 hr after i.v. 10 mg/kg",7.2 µM
same,concentration at 1 h,"[5]; brain, 1 hr after i.v. 10 mg/kg, n=3",1490 ng/g
same,concentration at 1 h,"[5]; plasma, 1 hr after i.v. 10 mg/kg, n=3",570 ± 90 ng/mL
same,HET0016 level in plasma (molar),[5]; 1 hr after i.v. 10 mg/kg,2.8 µM
same,concentration at 1 h,"[5]; plasma, one hour after i.v. 10 mg/kg body weight",2.8 µM
